From patent US20240197726A1, “NOVEL TETRAHYDROISOQUINOLINE ALKALOID COMPOUND CONTAINING MACROCYCLE” (THE UNIVERSITY OF TOKYO, priority 2021, published 2024)
Like-named read-outs stand apart in the source and are kept apart here.

Assays:
Format in all cases: cell-based
[1] = tested on: RXF-631L kidney cancer cells; experiment: antitumor activity, sulforhodamine B cell growth assay, RXF-631L
Experimental: (§1) The THIQ compound containing a macrocyclic structure of the present invention was administered to various cancer cell lines, and the antitumor activity (Go value) was observed. Specifically, verification was performed according to the literature (Yamori, T.; Matsunaga, A.; Sato, S.; Yamazaki, K.; Komi, A.; Ishizu, K. et al. Cancer Res. 1999, 59, 4042) by the following procedure.
(§2) Cells were plated at an appropriate density in a 96-well plate in RPMI 1640 together with 5% fetal bovine serum, and adhered overnight. The cells were exposed to a drug for 48 hours. Then, according to the sulforhodamine B assay described by Skehan et al (Skehan P., Storeng R., Scudiero D., Monks A., McMahon J., Vistica D., Warren J. T., Bokesch H., Kenney S., Boyd M. R. J Natl. Cancer Inst, 1990, 82, 1107-1112), the cell growth rate was measured. The absorbance of the control well (C) and the test well (T) was measured at 525 nm. In addition, the time at which the drug was added was set as time 0, and the absorbance for the test well (T0) was measured. Using these measured values, the cell growth inhibitory effect (% growth=PG) was calculated by the following formula at each concentration of the drug.
(§3) (T<T0): PG=100×[(T−T0)/T]
(§4) The PG values determined above for each cell line were plotted against the concentration (logarithm) on a semi-logarithmic graph, and summarized for each visceral cancer. Concentrations at which the dose-response curve of each cell line crossed the horizontal line of PG=50%, 0%, or −50% were calculated. These concentrations were defined as Log GI50, Log TGI, and Log LC50. Actually, using two data points of the drug concentration before and after crossing each horizontal line, the drug concentration (logarithmic value) at the intersection of the straight line connecting the two points and the horizontal line for each PG was calculated.

[2] = tested on: PC-3 prostate cancer cells; experiment: antitumor activity, sulforhodamine B cell growth assay, PC-3
Experimental: as §1, §2, §3, §4

DMS273 lung cancer cells = experiment: antitumor activity, sulforhodamine B cell growth assay, DMS273
Experimental: as §1, §2, §3, §4

[3] = tested on: NCI-H460 lung cancer cells; experiment: antitumor activity, sulforhodamine B cell growth assay, NCI-H460
Experimental: as §1, §2, §3, §4

[4] = tested on: MKN74 gastric cancer cells; experiment: antitumor activity, sulforhodamine B cell growth assay, MKN74
Experimental: as §1, §2, §3, §4

DMS114 lung cancer cells = experiment: antitumor activity, sulforhodamine B cell growth assay, DMS114
Experimental: as §1, §2, §3, §4

[5] = tested on: HT-29 colorectal cancer cells; experiment: antitumor activity, sulforhodamine B cell growth assay, HT-29
Experimental: as §1, §2, §3, §4

[6] = tested on: BSY-1 breast cancer cells; experiment: antitumor activity, sulforhodamine B cell growth assay, BSY-1
Experimental: as §1, §2, §3, §4

[7] = tested on: HCT-116 colorectal cancer cells; experiment: antitumor activity, sulforhodamine B cell growth assay, HCT-116
Experimental: as §1, §2, §3, §4

[8] = tested on: St-4 gastric cancer cells; experiment: antitumor activity, sulforhodamine B cell growth assay, St-4
Experimental: as §1, §2, §3, §4

[9] = tested on: DU-145 prostate cancer cells; experiment: antitumor activity, sulforhodamine B cell growth assay, DU-145
Experimental: as §1, §2, §3, §4

[10] = tested on: U251 central nervous system cancer cells; experiment: antitumor activity, sulforhodamine B cell growth assay, U251
Experimental: as §1, §2, §3, §4

[11] = tested on: KM-12 colorectal cancer cells; experiment: antitumor activity, sulforhodamine B cell growth assay, KM-12
Experimental: as §1, §2, §3, §4

LOX-IMVI melanoma cells = experiment: antitumor activity, sulforhodamine B cell growth assay, LOX-IMVI
Experimental: as §1, §2, §3, §4

[12] = tested on: MCF-7 breast cancer cells; experiment: antitumor activity, sulforhodamine B cell growth assay, MCF-7
Experimental: as §1, §2, §3, §4

OVCAR-8 cancer cells = experiment: antitumor activity, sulforhodamine B cell growth assay, OVCAR-8
Experimental: as §1, §2, §3, §4

A549 lung cancer cells = experiment: antitumor activity, sulforhodamine B cell growth assay, A549
Experimental: as §1, §2, §3, §4

[13] = tested on: SNB-75 central nervous system cancer cells; experiment: antitumor activity, sulforhodamine B cell growth assay, SNB-75
Experimental: as §1, §2, §3, §4

[14] = RXF-631L, drug exposure 48 hours, read-out: GI50 value: 50% growth inhibitory concentration
[15] = PC-3, drug exposure 48 hours, read-out: GI50 value: 50% growth inhibitory concentration
[16] = Homo sapiens, DMS-273, DMS273, drug exposure 48 hours, read-out: GI50 value: 50% growth inhibitory concentration
[17] = Homo sapiens, NCI-H460, drug exposure 48 hours, read-out: GI50 value: 50% growth inhibitory concentration
[18] = Homo sapiens, MKN-74, MKN74, drug exposure 48 hours, read-out: GI50 value: 50% growth inhibitory concentration
[19] = Homo sapiens, DMS-114, DMS114, drug exposure 48 hours, read-out: GI50 value: 50% growth inhibitory concentration
[20] = Homo sapiens, HT-29, drug exposure 48 hours, read-out: GI50 value: 50% growth inhibitory concentration
[21] = BSY-1, drug exposure 48 hours, read-out: GI50 value: 50% growth inhibitory concentration
[22] = Homo sapiens, HCT-116, drug exposure 48 hours, read-out: GI50 value: 50% growth inhibitory concentration
[23] = St-4 (SI-4 in Tables 2-11), drug exposure 48 hours, read-out: GI50 value: 50% growth inhibitory concentration
[24] = Homo sapiens, DU-145, drug exposure 48 hours, read-out: GI50 value: 50% growth inhibitory concentration
[25] = Homo sapiens, U-251, U251, drug exposure 48 hours, read-out: GI50 value: 50% growth inhibitory concentration
[26] = Homo sapiens, KM12, KM-12, drug exposure 48 hours, read-out: GI50 value: 50% growth inhibitory concentration
[27] = Homo sapiens, LOX-IMVI, drug exposure 48 hours, read-out: GI50 value: 50% growth inhibitory concentration
[28] = Homo sapiens, MCF7, MCF-7, drug exposure 48 hours, read-out: GI50 value: 50% growth inhibitory concentration
[29] = Homo sapiens, OVCAR-8, drug exposure 48 hours, read-out: GI50 value: 50% growth inhibitory concentration
[30] = Homo sapiens, A549, drug exposure 48 hours, read-out: GI50 value: 50% growth inhibitory concentration
[31] = Homo sapiens, SNB-75, drug exposure 48 hours, read-out: GI50 value: 50% growth inhibitory concentration

| Structure (SMILES) | GI50 [1, 14] [µM] | GI50 [2, 15] [µM] | GI50 (DMS273 lung cancer cells; [16]) [µM] | GI50 [3, 17] [µM] | GI50 [4, 18] [µM] | GI50 (DMS114 lung cancer cells; [19]) [µM] | GI50 [5, 20] [µM] | GI50 [6, 21] [µM] | GI50 [7, 22] [µM] | GI50 [8, 23] [µM] | GI50 [9, 24] [µM] | GI50 [10, 25] [µM] | GI50 [11, 26] [µM] | GI50 (LOX-IMVI melanoma cells; [27]) [µM] | GI50 [12, 28] [µM] | GI50 (OVCAR-8 cancer cells; [29]) [µM] | GI50 (A549 lung cancer cells; [30]) [µM] | GI50 [13, 31] [µM] | also measured |
| --- | --- | --- | --- | --- | --- | --- | --- | --- | --- | --- | --- | --- | --- | --- | --- | --- | --- | --- | --- |
| C#CCN1C/C=C/C(=C)COc2c(C)c3c(c4c2C[C@H]2[C@H]5c6c(cc(C)c(OC)c6O)C[C@@H]([C@H](C#N)N2C4CNC(=O)[C@@H]1C)N5C)OCO3 [Compound 35] | 0.0029 | 0.0033 | 0.0025 | 0.0034 | 0.0045 | 0.0012 | 0.0032 | 0.0013 | 0.0027 | 0.0038 | 0.0038 | 0.0025 | 0.0038 | 0.0017 | 0.00087 | 0.0031 | 0.0072 | 0.0017 |  |
| C=C1/C=C/CN[C@@H](C)C(=O)NCC2c3c(c(c(C)c4c3OCO4)OC1)C[C@H]1[C@H]3c4c(cc(C)c(OC)c4O)C[C@@H]([C@H](C#N)N21)N3C [Compound 33] | 0.3 | 0.19 |  |  |  |  |  | 0.018 |  | 0.27 |  |  |  |  |  |  |  |  | GI50 (DMS273 lung cancer cells; DMS273, drug exposure 48 hours, read-out: GI50 value: 50% growth inhibitory concentration): 0.14 µM; GI50 ([3]; NCI-H460, drug exposure 48 hours, read-out: GI50 value: 50% growth inhibitory concentration): 0.26 µM; GI50 ([4]; MKN74, drug exposure 48 hours, read-out: GI50 value: 50% growth inhibitory concentration): 0.26 µM; GI50 (DMS114 lung cancer cells; DMS114, drug exposure 48 hours, read-out: GI50 value: 50% growth inhibitory concentration): 0.031 µM; GI50 ([5]; HT-29, drug exposure 48 hours, read-out: GI50 value: 50% growth inhibitory concentration): 0.086 µM; GI50 ([7]; HCT-116, drug exposure 48 hours, read-out: GI50 value: 50% growth inhibitory concentration): 0.087 µM; GI50 ([9]; DU-145, drug exposure 48 hours, read-out: GI50 value: 50% growth inhibitory concentration): 0.37 µM; GI50 ([10]; U251, drug exposure 48 hours, read-out: GI50 value: 50% growth inhibitory concentration): 0.055 µM; GI50 ([11]; KM-12, drug exposure 48 hours, read-out: GI50 value: 50% growth inhibitory concentration): 0.11 µM; GI50 (LOX-IMVI melanoma cells; LOX-IMVI, drug exposure 48 hours, read-out: GI50 value: 50% growth inhibitory concentration): 0.031 µM; GI50 ([12]; MCF-7, drug exposure 48 hours, read-out: GI50 value: 50% growth inhibitory concentration): 0.026 µM; GI50 (OVCAR-8 cancer cells; OVCAR-8, drug exposure 48 hours, read-out: GI50 value: 50% growth inhibitory concentration): 0.18 µM; GI50 (A549 lung cancer cells; A549, drug exposure 48 hours, read-out: GI50 value: 50% growth inhibitory concentration): 0.36 µM; GI50 ([13]; SNB-75, drug exposure 48 hours, read-out: GI50 value: 50% growth inhibitory concentration): 0.096 µM |
| CC1=C(C)C(=O)C2=C(CC3(C)[C@H]4c5c(cc(C)c(C)c5C)C[C@@](C)(C(C)N3[C@H]2CNC(=O)C(C)C)N4C)C1=O (stereo partly drawn) [drawing 160] |  |  |  |  |  |  |  |  |  |  |  |  |  |  |  |  |  |  | GI50 ([1]; RXF-631L kidney cancer cells, read-out: antitumor activity GI50 value: 50% growth inhibitory concentration): 0.4 µM; GI50 ([2]; PC-3 prostate cancer cells, read-out: antitumor activity GI50 value: 50% growth inhibitory concentration): 0.29 µM; GI50 (DMS273 lung cancer cells; Homo sapiens, DMS-273, DMS273 lung cancer cells, read-out: antitumor activity GI50 value: 50% growth inhibitory concentration): 0.27 µM; GI50 ([3]; Homo sapiens, NCI-H460, NCl--H460 lung cancer cells, read-out: antitumor activity GI50 value: 50% growth inhibitory concentration): 0.4 µM; GI50 ([4]; Homo sapiens, MKN-74, MKN74 gastric cancer cells, read-out: antitumor activity GI50 value: 50% growth inhibitory concentration): 0.31 µM; GI50 (DMS114 lung cancer cells; Homo sapiens, DMS-114, DMS114 lung cancer cells, read-out: antitumor activity GI50 value: 50% growth inhibitory concentration): 0.035 µM; GI50 ([5]; Homo sapiens, HT-29 colorectal cancer cells, read-out: antitumor activity GI50 value: 50% growth inhibitory concentration): 0.19 µM; GI50 ([6]; BSY-1 breast cancer cells, read-out: antitumor activity GI50 value: 50% growth inhibitory concentration): 0.034 µM; GI50 ([7]; Homo sapiens, HCT-116 colorectal cancer cells, read-out: antitumor activity GI50 value: 50% growth inhibitory concentration): 0.29 µM; GI50 ([8]; SI-4 gastric cancer cells, read-out: antitumor activity GI50 value: 50% growth inhibitory concentration): 0.43 µM; GI50 ([9]; Homo sapiens, DU-145 prostate cancer cells, read-out: antitumor activity GI50 value: 50% growth inhibitory concentration): 0.49 µM; GI50 ([10]; Homo sapiens, U-251, U251 central nervous system cancer cells, read-out: antitumor activity GI50 value: 50% growth inhibitory concentration): 0.37 µM; GI50 ([11]; Homo sapiens, KM12, KM-12 colorectal cancer cells, read-out: antitumor activity GI50 value: 50% growth inhibitory concentration): 0.53 µM; GI50 (LOX-IMVI melanoma cells; Homo sapiens, LOX-IMVI melanoma cells, read-out: antitumor activity GI50 value: 50% growth inhibitory concentration): 0.061 µM; GI50 ([12]; Homo sapiens, MCF7, MCF-7 breast cancer cells, read-out: antitumor activity GI50 value: 50% growth inhibitory concentration): 0.052 µM; GI50 (OVCAR-8 cancer cells; Homo sapiens, OVCAR-8 cervical cancer cells, read-out: antitumor activity GI50 value: 50% growth inhibitory concentration): 0.29 µM; GI50 (A549 lung cancer cells; Homo sapiens, A549 lung cancer cells, read-out: antitumor activity GI50 value: 50% growth inhibitory concentration): 1.6 µM; GI50 ([13]; Homo sapiens, SNB-75 central nervous system cancer cells, read-out: antitumor activity GI50 value: 50% growth inhibitory concentration): 0.15 µM |
| COc1c(C)cc2c(c1O)[C@@H]1[C@@H]3Cc4c5c(C)c6c(c4C(CNC(=O)[C@H](C)NC(=O)OCC4C=C(CO5)Cn5c(=O)n(-c7ccccc7)c(=O)n54)N3[C@@H](C#N)[C@H](C2)N1C)OCO6 [Compound 16] | 0.035 | 0.026 | 0.015 | 0.036 | 0.032 | 0.0038 | 0.0073 | 0.0031 | 0.0093 | 0.037 | 0.041 | 0.0058 | 0.014 | 0.0033 | 0.0044 | 0.021 | 0.051 | 0.0099 |  |
